This is an account of results in PubChem BioAssay (NCI).

Some test systems named below: ACHN renal; CAKI-1 renal; CCRF-CEM leukemia; COLO 205 colon; HCT-116 colon; M14 melanoma; NCI-H522 lung; OVCAR-5 ovarian; SN12C renal; T-47D breast.
Common to all, as to experiment: NCI anticancer screen, dose series, 48 h

Values joined by “and” are separate entries in the source; they are usually repeats but may differ in a detail not shown here. Identical values can stand only once.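 Test compounds were applied to cells in 96-well plates for 48 hours at 5 doses. GI50 is the concentration that inhibits growth by half. TGI denotes the concentration required for complete inhibition of growth.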

On to `CC(C)NC[C@@H](C(=O)N1CCN(c2ncnc3c2[C@H](C)C[C@H]3O)CC1)c1ccc(Cl)cc1`, for which the GI50 with ACHN renal was > 10 µM and 22.8 µM; with CAKI-1 renal, > 10 µM and 36.1 µM; in the experiment on CCRF-CEM leukemia, 1.57 µM and 1.24 µM; in the experiment on COLO 205 colon, 3.48 µM and 7.6 µM; with HCT-116 colon, > 10 µM and 23.8 µM; in the experiment on M14 melanoma, above 61.5 µM. Also, the GI50 in the experiment on NCI-H522 lung was above 100 µM; in the experiment with OVCAR-5 ovarian, > 10 µM and 29.8 µM; in the experiment with SN12C renal, > 10 µM and 44.7 µM; in the experiment with T-47D breast it was 0.208 µM and 0.236 µM. Besides, the TGI in the experiment on ACHN renal, in the experiment with CAKI-1 renal, with CCRF-CEM leukemia, in the experiment with COLO 205 colon, with HCT-116 colon and in the experiment on M14 melanoma was above 100 µM in each case. Besides, the TGI with NCI-H522 lung, in the experiment on OVCAR-5 ovarian and in the experiment on SN12C renal was above 100 µM throughout.

As to `COc1cc(Cl)cc(-c2nn(C(=O)NCCN3CCOCC3)cc2-c2ccncc2)c1`, the GI50 with ACHN renal is 5.52 µM; in the experiment on CAKI-1 renal it was 2.49 µM; in the experiment on CCRF-CEM leukemia, 5.91 µM; in the experiment with COLO 205 colon, 3.16 µM; with HCT-116 colon it was 4.13 µM; in the experiment on M14 melanoma, 5.42 µM. For the same compound, the GI50 in the experiment on NCI-H522 lung is 3.38 µM; with OVCAR-5 ovarian, 37.8 µM; with SN12C renal, 10 µM; with T-47D breast it was 5.78 µM. For the same compound, the TGI in the experiment on ACHN renal is 90.2 µM; in the experiment with CAKI-1 renal, 18.7 µM; in the experiment on CCRF-CEM leukemia, above 100 µM; in the experiment on COLO 205 colon, 11.2 µM; in the experiment on HCT-116 colon, 51.2 µM; in the experiment on M14 melanoma, 39.5 µM. Moreover, the TGI in the experiment on NCI-H522 lung, in the experiment with OVCAR-5 ovarian, with SN12C renal and with T-47D breast was above 100 µM throughout.

As for `COc1cc(C2c3cc4c(cc3[C@@H](Nc3ccc(C#N)cc3)C3COC(=O)[C@H]23)OCO4)cc(OC)c1O` (some centres undefined), the GI50 in the experiment with ACHN renal was 0.128 µM; with CAKI-1 renal it was 0.228 µM; in the experiment on CCRF-CEM leukemia, 0.147 µM; in the experiment on COLO 205 colon, 1.98 µM and 1.38 µM; in the experiment with HCT-116 colon, 0.452 µM and 0.389 µM; in the experiment with NCI-H522 lung, 1.44 µM and 1.55 µM. The GI50 in the experiment with OVCAR-5 ovarian was 2.96 µM and 3.3 µM; in the experiment with SN12C renal, 1.91 µM and 0.728 µM; with T-47D breast, 0.46 µM. The TGI with ACHN renal is 1.24 µM and 2.41 µM; in the experiment with CAKI-1 renal, 4.37 µM and 2.52 µM; with COLO 205 colon it was 13 µM and 8.41 µM and 11.5 µM; with HCT-116 colon, 10.8 µM and 2.45 µM and 11.4 µM; in the experiment on NCI-H522 lung, 7.51 µM and 4.48 µM and 7.4 µM; in the experiment with OVCAR-5 ovarian it was 31.7 µM and 59.9 µM and > 100 µM.

In the case of `Nc1ccn(Cc2ccc(C34CC5CC(CC(C5)C3)C4)c(O)c2)c(=O)n1`, the GI50 with ACHN renal is above 100 µM; with CAKI-1 renal it was above 100 µM; in the experiment with COLO 205 colon it was above 100 µM; in the experiment on HCT-116 colon, above 100 µM; with M14 melanoma, above 100 µM; in the experiment on NCI-H522 lung it was 40.9 µM. Moreover, the GI50 in the experiment on OVCAR-5 ovarian, in the experiment on SN12C renal and with T-47D breast was above 100 µM each time. The TGI in the experiment on ACHN renal, with CAKI-1 renal, in the experiment with COLO 205 colon, in the experiment on HCT-116 colon, in the experiment on M14 melanoma and in the experiment on NCI-H522 lung was above 100 µM in each case. Also, the TGI in the experiment with OVCAR-5 ovarian, in the experiment on SN12C renal and in the experiment on T-47D breast was above 100 µM throughout.

Take `Nc1c(C(=O)Nc2cccc([N+](=O)[O-])c2)sc2nc3c(cc12)C(O)CCC3` (centres undefined): the GI50 in the experiment with ACHN renal is 30.6 µM; in the experiment with CAKI-1 renal, above 100 µM; in the experiment on COLO 205 colon, 3.51 µM; with HCT-116 colon it was 4.09 µM; in the experiment with M14 melanoma, 3.39 µM; in the experiment with NCI-H522 lung, 6.11 µM. Also, the figures for the GI50 in the experiment on OVCAR-5 ovarian, with SN12C renal and in the experiment on T-47D breast were above 100 µM, 7.39 µM and 6.59 µM, respectively. For the same compound, the TGI in the experiment on ACHN renal, with CAKI-1 renal, with COLO 205 colon, in the experiment on HCT-116 colon, in the experiment on M14 melanoma and in the experiment with NCI-H522 lung was above 100 µM each time. The TGI in the experiment on OVCAR-5 ovarian, in the experiment on SN12C renal and in the experiment on T-47D breast was above 100 µM each time.

`CN(C)/C=C/c1nnc([N+](=O)[O-])s1`: the TGI in the experiment on ACHN renal came out at 31.9 µM; in the experiment on CAKI-1 renal it was 40.5 µM; in the experiment with COLO 205 colon it was 10.3 µM; in the experiment with HCT-116 colon, 26.2 µM; in the experiment with M14 melanoma, 29.1 µM; in the experiment on NCI-H522 lung, 3.27 µM. The TGI in the experiment with SN12C renal was found to be 47.7 µM; in the experiment with T-47D breast it was 38.9 µM.

With `COc1c2c(c3c(c1CCC(=O)O)OC(C)(C)C=C3)OC(C)(C)C=C2`, the TGI in the experiment on ACHN renal, in the experiment on CAKI-1 renal, with COLO 205 colon, in the experiment on HCT-116 colon, with M14 melanoma and in the experiment on NCI-H522 lung was above 100 µM throughout. Moreover, the TGI in the experiment on OVCAR-5 ovarian, with SN12C renal and in the experiment on T-47D breast was above 100 µM each time.

For the compound `O=C(c1ccccc1)C1N=NCC1c1ccc([N+](=O)[O-])cc1` (centres undefined), the TGI in the experiment with ACHN renal was above 100 µM; in the experiment on CAKI-1 renal, 44.5 µM; with CCRF-CEM leukemia it was above 100 µM; with COLO 205 colon, above 100 µM; in the experiment on HCT-116 colon, above 100 µM; in the experiment on M14 melanoma it was above 100 µM. Moreover, the values for the TGI in the experiment with OVCAR-5 ovarian, in the experiment on SN12C renal and in the experiment with T-47D breast were above 100 µM, above 100 µM and 30.9 µM, respectively.

Consider `C[N+](C)(C)CC(=O)N/N=C(/Cc1nc2c3c(ccc2[nH]c1=O)C(=O)c1ccccc1C3=O)C(=O)Nc1ccc(Cl)c(Cl)c1`, for which the TGI in the experiment on ACHN renal is above 100 µM; in the experiment on CAKI-1 renal, 87 µM; with CCRF-CEM leukemia, above 100 µM; with COLO 205 colon, above 100 µM; in the experiment with HCT-116 colon, above 100 µM; with M14 melanoma, above 100 µM. Also, the TGI in the experiment with NCI-H522 lung, in the experiment with OVCAR-5 ovarian and in the experiment on SN12C renal was above 100 µM each time.

Turning to `COc1cccc(NC(=O)CC(=O)N2N=C(N(CCC#N)c3ccc(Cl)cc3)CC2c2ccccc2)c1` (centres undefined), the TGI with ACHN renal, in the experiment on CAKI-1 renal, with CCRF-CEM leukemia, with COLO 205 colon, in the experiment on HCT-116 colon and in the experiment on M14 melanoma was above 100 µM in each case. Also, the TGI in the experiment with NCI-H522 lung, in the experiment on OVCAR-5 ovarian and in the experiment on SN12C renal was above 100 µM each time.
